From patent US8450357B2, “Compositions comprising an aryl pyrazole and/or a formamidine, methods and uses thereof” (Merial Limited, priority 2008, dated 2013)
Where two headings read alike, the source gives them in different places.

Tests used:
[1] = tested on: adult brown dog ticks (Rhipicephalus sanguineus); experiment: Tick DMSO contact assay, Compound 1 with reduced dosages of amitraz, Example 16; type: in vivo
Description: Scintillation vials were treated with commercial and experimental compounds using the same procedure described in Example 12 above. The treated vials were used to determine the contact toxicity of compounds against adult brown dog ticks (Rhipicephalus sanguineus). The ticks were supplied by Ecto Services Inc. Henderson, N.C.
Unfed adult ticks were released into a metal pan and 10 living ticks were aspirated into each vial. […] Two replicates were tested for each treatment and the results were averaged. Ticks were stimulated by gently exhaling in the vials. Within the same time period, the addition of amitraz to an equal dosage of compound 1 increased mean mortality.

[2] = Solubility of amitraz in various solvents; type: physicochemical
Description: Solutions of amitraz in certain solvents at high concentration result in the appearance of crystals over time. […] The solubility of amitraz in butyl acetate is lower then in anisole, MIK and ethyl benzoate. […] Additionally, when amitraz (25%) in butyl acetate formulations were stored at 50° C. in a chamber, they evaporated slightly. […] Again, lowering concentration to 20% and addition of co-solvents with higher solubility of amitraz avoided crystallization of amitraz. Unexpectedly, this addition of co-solvents caused the effects described below in Example 9.

[3] = 4 h, read-out: 4 hour % Mortality Rep 1
[4] = 4 h, read-out: 4 hour % Mortality Rep 2
[5] = 4 h, read-out: 4 hour Avg. % Mortality
[6] = 24 h, read-out: 24 hour % Mortality Rep 1
[7] = 24 h, read-out: 24 hour % Mortality Rep 2
[8] = 24 h, read-out: 24 hour Avg. % Mortality
[9] = 48 h, read-out: 48 hour % Mortality Rep 1
[10] = 48 h, read-out: 48 hour % Mortality Rep 2
[11] = 48 h, read-out: 48 hour Avg. % Mortality

Cc1ccc(/N=C/N(C)/C=N/c2ccc(C)cc2C)c(C)c1 [Amitraz, amitraz]
39.43%: Solubility of amitraz (at room temperature, %) ([2]; in Ethyl benzoate)
37.87%: Solubility of amitraz (at room temperature, %) ([2]; in Acetone)
45.54%: Solubility of amitraz (at room temperature, %) ([2]; in Anisole (methoxybenzene))
27.10%: Solubility of amitraz (at room temperature, %) ([2]; in Butyl acetate)
21.85%: Solubility of amitraz (at room temperature, %) ([2]; in Benzyl acetate)
33.30%: Solubility of amitraz (at room temperature, %) ([2]; in Benzyl benzoate)
36.72%: Solubility of amitraz (at room temperature, %) ([2]; in Methyl isobutyl ketone)
0%: mortality at 3.13 ppm [1, 3] | mortality at 6.25 ppm [1, 3] | mortality at 12.5 ppm [1, 3] | mortality at 3.13 ppm [1, 4] | mortality at 6.25 ppm [1, 4] | mortality at 12.5 ppm [1, 4] | mortality at 3.13 ppm [1, 5] | mortality at 6.25 ppm [1, 5] | mortality at 12.5 ppm [1, 5] | mortality at 3.13 ppm [1, 6] | mortality at 6.25 ppm [1, 6] | mortality at 12.5 ppm [1, 6] | mortality at 3.13 ppm [1, 7] | mortality at 6.25 ppm [1, 7] | mortality at 12.5 ppm [1, 7] | mortality at 3.13 ppm [1, 8] | mortality at 6.25 ppm [1, 8] | mortality at 12.5 ppm [1, 8] | mortality at 3.13 ppm [1, 9] | mortality at 6.25 ppm [1, 9] | mortality at 12.5 ppm [1, 9] | mortality at 3.13 ppm [1, 10] | mortality at 6.25 ppm [1, 10] | mortality at 12.5 ppm [1, 10] | mortality at 3.13 ppm [1, 11] | mortality at 6.25 ppm [1, 11] | mortality at 12.5 ppm [1, 11]
